From patent publication US20250276964A1 (Novartis AG, priority 2021, published 2025)

Target: T1, WIZ (Homo sapiens, UniProt O95785+Q96SW2)
T1 construct: expressed in transfected cells
Test: Quantification of WIZ protein levels in HiBit tag fusion protein assay (WIZ HiBit assay in 293T cells)
Assay type: cell-based
Settings: for Dmax at 25 µM / remaining activity at 25 µM: HEK-293T; for Dmax at 25 µM: read-out: % degradation of WIZ (100-Amax); for remaining activity at 25 µM: read-out: WIZ Amax; for DC50: WIZ HiBit assay in 293T cells, 10-point, 5-fold dilution, highest concentration 25 μM, about 18 hours, read-out: WIZ AC50
Procedure: The HiBit system from Promega was used to develop high-throughput and quantitative assays to measure changes in WIZ protein levels in response to compounds. The HiBit tag was derived from a split Nanoluciferase and has the following protein sequence: […] (SEQ ID NO: 1). The complementary fragment of Nanoluciferase (known as LgBit, from Promega), was added to the HiBit tag to form an active Nanoluciferase enzyme whose activity can be precisely measured. In this way, the levels of a fusion protein with the HiBit tag can be quantified in cell lysates.
Lentiviral vectors, based on the Invitrogen™ pLenti6.2/V5 DEST backbone were constructed that places the HiBit tag upstream of WIZ and expressed the fusion protein from an HSVTK promotor.
To ensure moderate and consistent expression of the HiBit-WIZ fusion protein across all cells in the population, stable cell lines were constructed from cells harboring a single copy of the construct. Lentivirus packaged with the constructs were made using the ViraPower™kit from Invitrogen™. 293T cells from ATCC (Catalog number: CRL-3216), were infected with the virus at low multiplicity of infection and selected by 5 μg/mL blasticidin in culture media for 2 weeks.
The levels of HiBit-WIZ tagged fusion proteins in compound-treated cell lines were measured as follows:
On day 1, cells were diluted to 1.0×10^6 cells/ml in normal growth medium. 20 μL of cell suspension were plated in each well of a solid white 384-well plate. Plates were incubated overnight in a 37° C. and 5% CO2 humidified tissue culture incubator.
On day 2, serial dilutions of compounds were made in 384-well plates. Compound plates were set up with DMSO in columns 1, 2, 23, 24, and 10-point compound dilution series in column 3-12 and column 13-22. 10 mM stock solution of compound were placed into column 3 or 13 and a 1:5 serial dilution was carried out until there was a 10-point dilution series per compound. 50 nL of diluted compounds were transferred into the plated cells by Echo® (Labcyte) acoustic transfer. The highest concentration of compound was 25 μM. Plates were incubated overnight (about 18 hours) in a 37° C. and 5% CO2 humidified tissue culture incubator.
On day 3, plates were removed from the incubator and allowed to equilibrate at room temperature for 60 minutes. HiBit substrate (Nano-Glo® HiBit Lytic Detection System, Promega Catalogue number: N3050) was added as described by the manufacturers protocols. Plates were incubated at room temperature for 30 minutes and luminescence was read using an EnVision® reader (PerkinElmer®). Data was analyzed and visualized using the Spotfire® software package.
WIZ Amax reflects the DMSO-normalized, curve-fitted percentage of WIZ-HiBit remaining at 25 uM. It was calculated by normalizing DMSO controls to 100%, parametric curve fitting of the dose response data (10-point, 5-fold), followed by calculation of response at 25 uM using the fitted equation (nd=not determined).

[1] = DMSO-normalized, curve-fitted percentage of WIZ-HiBit remaining at 25 uM

T1 sequence (O95785 whole entry): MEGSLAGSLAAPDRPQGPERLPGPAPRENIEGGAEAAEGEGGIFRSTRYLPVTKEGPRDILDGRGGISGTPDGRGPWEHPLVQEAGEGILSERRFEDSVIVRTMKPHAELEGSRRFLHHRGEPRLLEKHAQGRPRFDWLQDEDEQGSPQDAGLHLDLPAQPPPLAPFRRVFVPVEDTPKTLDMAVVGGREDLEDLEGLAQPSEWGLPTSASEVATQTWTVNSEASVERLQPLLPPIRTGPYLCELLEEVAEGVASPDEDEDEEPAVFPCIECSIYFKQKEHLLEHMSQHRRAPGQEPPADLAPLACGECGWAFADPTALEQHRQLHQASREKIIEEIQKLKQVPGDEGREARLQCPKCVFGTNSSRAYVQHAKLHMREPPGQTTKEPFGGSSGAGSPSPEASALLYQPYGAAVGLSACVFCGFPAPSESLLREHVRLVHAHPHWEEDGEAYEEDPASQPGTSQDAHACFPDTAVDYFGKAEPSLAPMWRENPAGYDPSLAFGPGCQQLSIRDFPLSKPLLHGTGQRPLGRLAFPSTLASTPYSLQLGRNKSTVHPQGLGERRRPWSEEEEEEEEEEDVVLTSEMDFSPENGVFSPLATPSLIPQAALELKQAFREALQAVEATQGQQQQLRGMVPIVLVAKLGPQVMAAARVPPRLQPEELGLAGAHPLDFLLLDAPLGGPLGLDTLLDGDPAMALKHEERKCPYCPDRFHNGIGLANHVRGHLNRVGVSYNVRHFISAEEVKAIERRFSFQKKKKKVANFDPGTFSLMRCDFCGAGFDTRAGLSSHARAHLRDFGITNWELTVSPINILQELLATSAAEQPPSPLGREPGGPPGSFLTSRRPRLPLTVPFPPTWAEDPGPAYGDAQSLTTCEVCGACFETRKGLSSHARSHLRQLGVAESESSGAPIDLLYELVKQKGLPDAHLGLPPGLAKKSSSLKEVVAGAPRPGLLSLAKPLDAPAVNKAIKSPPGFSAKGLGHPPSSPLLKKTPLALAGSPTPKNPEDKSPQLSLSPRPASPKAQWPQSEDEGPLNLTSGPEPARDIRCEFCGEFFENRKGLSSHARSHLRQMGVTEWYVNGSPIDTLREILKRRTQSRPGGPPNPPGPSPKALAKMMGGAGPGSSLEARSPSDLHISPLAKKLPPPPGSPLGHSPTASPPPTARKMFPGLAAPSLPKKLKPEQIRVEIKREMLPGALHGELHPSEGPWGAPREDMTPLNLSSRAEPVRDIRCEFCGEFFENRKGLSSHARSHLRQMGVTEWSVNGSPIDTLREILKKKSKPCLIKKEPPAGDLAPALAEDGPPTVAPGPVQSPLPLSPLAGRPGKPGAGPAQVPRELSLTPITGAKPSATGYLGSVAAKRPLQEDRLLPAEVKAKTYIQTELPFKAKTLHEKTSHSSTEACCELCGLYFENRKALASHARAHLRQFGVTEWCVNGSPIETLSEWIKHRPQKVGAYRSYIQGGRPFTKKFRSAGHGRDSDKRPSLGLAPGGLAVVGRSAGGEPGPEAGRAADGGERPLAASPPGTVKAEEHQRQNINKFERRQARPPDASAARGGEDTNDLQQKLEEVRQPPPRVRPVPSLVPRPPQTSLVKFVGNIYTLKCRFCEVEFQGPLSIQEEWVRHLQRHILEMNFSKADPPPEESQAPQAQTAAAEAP
T1 sequence (Q96SW2 whole entry): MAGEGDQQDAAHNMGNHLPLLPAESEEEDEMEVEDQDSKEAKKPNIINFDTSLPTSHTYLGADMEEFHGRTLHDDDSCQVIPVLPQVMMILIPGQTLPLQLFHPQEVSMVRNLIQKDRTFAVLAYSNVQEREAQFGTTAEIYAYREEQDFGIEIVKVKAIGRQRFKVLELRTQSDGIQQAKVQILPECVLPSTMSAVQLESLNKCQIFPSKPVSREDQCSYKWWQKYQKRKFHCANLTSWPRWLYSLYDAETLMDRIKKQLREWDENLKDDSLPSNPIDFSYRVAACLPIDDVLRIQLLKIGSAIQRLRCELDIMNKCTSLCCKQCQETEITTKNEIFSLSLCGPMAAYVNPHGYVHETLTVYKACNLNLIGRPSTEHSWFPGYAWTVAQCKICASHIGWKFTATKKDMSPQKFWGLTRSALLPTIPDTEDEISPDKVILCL
T1 sequence (Q16531 whole entry partner): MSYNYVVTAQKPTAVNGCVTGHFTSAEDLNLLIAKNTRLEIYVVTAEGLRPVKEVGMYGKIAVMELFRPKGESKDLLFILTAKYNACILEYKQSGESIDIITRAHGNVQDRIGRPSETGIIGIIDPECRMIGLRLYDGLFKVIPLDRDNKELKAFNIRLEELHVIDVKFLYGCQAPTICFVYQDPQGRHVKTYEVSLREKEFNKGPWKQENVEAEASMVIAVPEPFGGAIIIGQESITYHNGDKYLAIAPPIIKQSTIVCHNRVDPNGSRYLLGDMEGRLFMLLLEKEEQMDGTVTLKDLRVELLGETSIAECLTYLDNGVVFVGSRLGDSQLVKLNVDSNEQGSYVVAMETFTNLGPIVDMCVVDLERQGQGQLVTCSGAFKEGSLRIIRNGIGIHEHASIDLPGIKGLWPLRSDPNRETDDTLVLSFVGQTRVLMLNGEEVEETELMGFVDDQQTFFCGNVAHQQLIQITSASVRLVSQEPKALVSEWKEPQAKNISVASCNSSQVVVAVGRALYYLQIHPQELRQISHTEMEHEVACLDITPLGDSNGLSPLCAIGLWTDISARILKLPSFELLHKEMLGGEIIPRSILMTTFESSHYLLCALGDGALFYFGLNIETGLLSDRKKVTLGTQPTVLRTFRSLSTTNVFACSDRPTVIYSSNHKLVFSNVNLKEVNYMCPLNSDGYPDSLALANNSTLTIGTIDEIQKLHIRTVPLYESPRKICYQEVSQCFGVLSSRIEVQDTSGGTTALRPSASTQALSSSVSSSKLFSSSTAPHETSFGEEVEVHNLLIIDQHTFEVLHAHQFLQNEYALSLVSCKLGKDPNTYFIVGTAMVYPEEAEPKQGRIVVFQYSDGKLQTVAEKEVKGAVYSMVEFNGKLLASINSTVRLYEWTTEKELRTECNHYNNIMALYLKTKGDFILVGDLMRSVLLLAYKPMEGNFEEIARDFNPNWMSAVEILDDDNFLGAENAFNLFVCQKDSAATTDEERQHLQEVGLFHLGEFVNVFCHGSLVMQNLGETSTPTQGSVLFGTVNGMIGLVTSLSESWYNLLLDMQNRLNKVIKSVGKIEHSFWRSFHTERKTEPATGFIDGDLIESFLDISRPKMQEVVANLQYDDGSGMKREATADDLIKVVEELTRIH

| Structure (SMILES) | Dmax at 25 µM (100 minus Amax at 25 uM) [%] | remaining activity at 25 µM [1] [%] | DC50 [nM] | % degradation of WIZ (100-Amax) (100 minus Amax at 25 uM) [%] | WIZ Amax [1] [%] |
| --- | --- | --- | --- | --- | --- |
| CC(C)S(=O)(=O)N1CCN(Cc2ccc3onc(N4CCC(=O)NC4=O)c3c2)CC1 [Example 84, 1-(5-((4-(isopropylsulfonyl)piperazin-1-yl)methyl)benzo[d]isoxazol-3-yl)dihydropyrimidine-2,4(1H,3H)-dione] | 82 | 18 | 145 | – | – |
| Cc1c(CN2CCN(CC(C)C)[C@@H](C)C2)ccc2onc(N3CCC(=O)NC3=O)c12 [Example 128, (S)-1-(5-((4-isobutyl-3-methylpiperazin-1-yl)methyl)-4-methylbenzo[d]isoxazol-3-yl)dihydropyrimidine-2,4(1H,3H)-dione] | 88 | 12 | 7 | – | – |
| CC(=O)N1CCN(Cc2ccc3onc(N4CCC(=O)NC4=O)c3c2)[C@H](C)C1 [Example 64, (R)-1-(5-((4-acetyl-2-methylpiperazin-1-yl)methyl)benzo[d]isoxazol-3-yl)dihydropyrimidine-2,4(1H,3H)-dione] | 75 | 25 | 229 | – | – |
| O=C1CCN(c2noc3ccc(CC4CCCNCC4)cc23)C(=O)N1 (stereo not drawn) [Example 52, 1-(5-(azepan-4-ylmethyl)benzo[d]isoxazol-3-yl)dihydropyrimidine-2,4(1H,3H)-dione] | 86 | 14 | 57 | – | – |
| Cc1c(CN2CCN(C)[C@@H](C)C2)ccc2onc(N3CCC(=O)NC3=O)c12 [Example 129, (S)-1-(5-((3,4-dimethylpiperazin-1-yl)methyl)-4-methylbenzo[d]isoxazol-3-yl)dihydropyrimidine-2,4(1H,3H)-dione] | 86 | 14 | 9 | – | – |
| C[C@@H]1CN(S(C)(=O)=O)CCN1Cc1ccc2onc(N3CCC(=O)NC3=O)c2c1 [Example 71, (R)-1-(5-((2-methyl-4-(methylsulfonyl)piperazin-1-yl)methyl)benzo[d]isoxazol-3-yl)dihydropyrimidine-2,4(1H,3H)-dione] | 82 | 18 | 34 | – | – |
| C[C@@H]1CN(CC2CCOCC2)CCN1Cc1ccc2onc(N3CCC(=O)NC3=O)c2c1 [Example 67, (R)-1-(5-((2-methyl-4-((tetrahydro-2H-pyran-4-yl)methyl)piperazin-1-yl)methyl)benzo[d]isoxazol-3-yl)dihydropyrimidine-2,4(1H,3H)-dione] | 89 | 11 | 9 | – | – |
| CS(=O)(=O)N1CC2CCC1CN2Cc1ccc2onc(N3CCC(=O)NC3=O)c2c1 (single isomer, unassigned) [Example 125, 1-(5-((5-(methylsulfonyl)-2,5-diazabicyclo[2.2.2]octan-2-yl)methyl)benzo[d]isoxazol-3-yl)dihydropyrimidine-2,4(1H,3H)-dione] | 85 | 15 | 120 | – | – |
| O=C1CCN(c2noc3ccc(CN4CCN(C5CCC5)CC4)cc23)C(=O)N1 [Example 80, 1-(5-((4-cyclobutylpiperazin-1-yl)methyl)benzo[d]isoxazol-3-yl)dihydropyrimidine-2,4(1H,3H)-dione] | 93 | 7 | 14 | – | – |
| O=C1CCN(c2noc3ccc(CN4CC5CCC4CN5CC4CCOCC4)cc23)C(=O)N1 (single isomer, unassigned) [Example 122, 1-(5-((5-((tetrahydro-2H-pyran-4-yl)methyl)-2,5-diazabicyclo[2.2.2]octan-2-yl)methyl)benzo[d]isoxazol-3-yl)dihydropyrimidine-2,4(1H,3H)-dione] | – | – | 44 | 91 | 9 |
| O=C1CCN(c2noc3ccc(CN4C[C@H]5C[C@@H]4CN5CC4CCOCC4)cc23)C(=O)N1 [Example 98, 1-(5-(((1R,4R)-5-((tetrahydro-2H-pyran-4-yl)methyl)-2,5-diazabicyclo[2.2.1]heptan-2-yl)methyl)benzo[d]isoxazol-3-yl)dihydropyrimidine-2,4(1H,3H)-dione] | 81 | 19 | 50 | – | – |
| CC(C)[C@H]1CN(Cc2ccc3onc(N4CCC(=O)NC4=O)c3c2)CCN1CC1CCOCC1 [Example 38, (S)-1-(5-((3-isopropyl-4-((tetrahydro-2H-pyran-4-yl)methyl)piperazin-1-yl)methyl)benzo[d]isoxazol-3-yl)dihydropyrimidine-2,4(1H,3H)-dione] | 76 | 24 | 140 | – | – |
| CC(C)[C@@H]1CN(C)CCN1Cc1ccc2onc(N3CCC(=O)NC3=O)c2c1 [Example 89, (R)-1-(5-((2-isopropyl-4-methylpiperazin-1-yl)methyl)benzo[d]isoxazol-3-yl)dihydropyrimidine-2,4(1H,3H)-dione] | 83 | 17 | 28 | – | – |
| CC(C)CN1CCN(Cc2ccc3onc(N4CCC(=O)NC4=O)c3c2)CC1 [Example 24, 1-(5-((4-isobutylpiperazin-1-yl)methyl)benzo[d]isoxazol-3-yl)dihydropyrimidine-2,4(1H,3H)-dione] | 89 | 11 | 37 | – | – |
| C[C@H]1CN(Cc2ccc3onc(N4CCC(=O)NC4=O)c3c2)CCN1CC1CCOCC1 [Example 31, (S)-1-(5-((3-methyl-4-((tetrahydro-2H-pyran-4-yl)methyl)piperazin-1-yl)methyl)benzo[d]isoxazol-3-yl)dihydropyrimidine-2,4(1H,3H)-dione] | 91 | 9 | 6.9 | – | – |
| CN1CC2CCC1CN2Cc1ccc2onc(N3CCC(=O)NC3=O)c2c1 (single isomer, unassigned) [Example 123, 1-(5-((5-methyl-2,5-diazabicyclo[2.2.2]octan-2-yl)methyl)benzo[d]isoxazol-3-yl)dihydropyrimidine-2,4(1H,3H)-dione] | 89 | 11 | 59 | – | – |
| CN1CCC(Cc2ccc3onc(N4CCC(=O)NC4=O)c3c2)CC1 [Example 10, 1-(5-((1-methylpiperidin-4-yl)methyl)benzo[d]isoxazol-3-yl)dihydropyrimidine-2,4(1H,3H)-dione] | 90 | 10 | 45 | – | – |
| CC(C)(C)OC(=O)N1[C@@H]2CC[C@H]1CN(Cc1ccc3onc(N4CCC(=O)NC4=O)c3c1)C2 [Example 99, tert-butyl (1R,5S)-3-((3-(2,4-dioxotetrahydropyrimidin-1(2H)-yl)benzo[d]isoxazol-5-yl)methyl)-3,8-diazabicyclo[3.2.1]octane-8-carboxylate] | 74 | 26 | 450 | – | – |
| C[C@@H]1CN(C2CCC2)CCN1Cc1ccc2onc(N3CCC(=O)NC3=O)c2c1 [Example 77, (R)-1-(5-((4-cyclobutyl-2-methylpiperazin-1-yl)methyl)benzo[d]isoxazol-3-yl)dihydropyrimidine-2,4(1H,3H)-dione] | 82 | 18 | 22 | – | – |
